# Source: patent US9180193B2, “Antiviral compounds” (Hoffmann-La Roche Inc., priority 2011, dated 2015)
# Test system: GT-1a pRLuc H77 1b 75 SI subgenomic replicon cell line (Huh7)
# Assay: HCV GT-1a replicon luciferase reporter assay
# Format: cell-based
# Conditions: Hepatitis C virus, GT1A, Huh-7; Renilla luciferase reporter read 72 hours after compound addition; GT-1a H77 replicon cells
# Source text: Determination of compounds HCV GT1b inhibitory replicon activity using the replicon luciferase reporter assay
# The 2209-23 cell line was developed at Roche by stable transfection of the hepatoma cell line Huh-7 with a GT-1b Con1 subgenomic bicistronic replicon as previously described. Subgenomic replicon cell line was established in cured Huh7 cells, obtained from R. Bartenschlager (J Virol. 2003 March; 77 (5):3007-19) The GT-1a H77 subgenomic replicon vector pRLuc H77 lb 75 SI, was created by replacing the non structural region of the GT-1b Con1 subgenomic replicon by the one of the H77 strain, except for the first 75 amino acids of the NS3 protein that are from GT-1b Con1 strain. (J Virol. 2001 77:5352-59) The GT-1a pRLuc H77 1b 75 SI subgenomic replicon cell line was established in cured Huh7 cells, obtained from R. Bartenschlager. (J Virol. 2003 March; 77 (5):3007-19)
# All the subgenomic replicon cell lines were cultured in Dulbecco's Modified Eagle Medium (DMEM-Glutamax™-I; Invitrogen Cat #10569-010). The medium was supplemented with 10% Fetal Bovine Serum (Invitrogen Cat #10082-147), 1% penicillin/streptomycin (Mediatech Cat #30-002-CI) and 500 μg/ml of G418 (Mediatech Cat #30-234-CI). Cells were maintained at 37° C. in a humidified 5% CO2 atmosphere.
# 2209-23 cells were plated at a cell density of 5000 cells per well in 96 well plates (Becton Dickinson, Cat #35 3296). Cells were plated in 90 μl of Dulbecco's Modified Eagle Medium (DMEM-Glutamax™-I), (Invitrogen Cat #10569-010) medium was supplemented with 5% Fetal Bovine Serum (Invitrogen Cat #10082-147), 1% penicillin/streptomycin (Mediatech Cat #30-002-CI). The pRluc H77 1b 75 SI cells were plated in 96-well plate at 3000 cells/well in DMEM-Glutamax™-I containing 5% FBS and 1% penicillin/streptomycin in 90 μl final volume. Cells were allowed to equilibrate for 24 hours at 37° C. and 5% CO2 at which time compounds were added. Compounds (or medium as a control) were added 24 hours post-plating in 3 fold dilutions at a final DMSO concentration of 1% in 10 ul volume. Renilla luciferase reporter signal was read 72 hours after addition of compounds using the Renilla Luciferase Assay System (Promega, cat # E2820). EC50 values were defined as the compound concentration at which a 50% reduction in the levels of renilla luciferase reporter was observed as compared to control samples in the absence of compound and was determined by non-linear fitting of compound dose-response data. The EC50 was approximated if maximum percentage inhibition was less than 90% and more than 70%.
row,Structure (SMILES),EC50
1,"COC(=O)N[C@H]1CCC(=O)N2CCC[C@@H](c3ncc(-c4ccc(-c5ccc(-c6cnc([C@@H]7CC(F)(F)CN7C(=O)[C@@H](NC(=O)OC)C(C)C)[nH]6)cc5)cc4)[nH]3)N2C1=O [Compound I-5, {(4S,7S)-4-[5-(4′-{2-[(S)-4,4-Difluoro-1-((S)-2-methoxycarbonylamino-3-methyl-butyryl)-pyrrolidin-2-yl]-3H-imidazol-4-yl}-biphenyl-4-yl)-1H-imidazol-2-yl]-6,10-dioxo-octahydro-pyridazino[1,2-a][1,2]diazepin-7-yl}-carbamic acid methyl ester]",0.92 nM
2,"COC(=O)N[C@H]1CCC(=O)N2CCC[C@@H](c3nc4cc(-c5ccc(-c6cnc([C@@H]7CCCN7C(=O)[C@@H](NC(=O)OC)C(C)C)[nH]6)cc5)ccc4[nH]3)N2C1=O [Compound I-2, {(4S,7S)-4-[5-(4-{2-[(S)-1-((S)-2-Methoxycarbonylamino-3-methyl-butyryl)-pyrrolidin-2-yl]-3H-imidazol-4-yl}-phenyl)-1H-benzoimidazol-2-yl]-6,10-dioxo-octahydro-pyridazino[1,2-a][1,2]diazepin-7-yl}-carbamic acid methyl ester]",156 nM
3,"COC(=O)N[C@H](C(=O)N1CCC[C@H]1c1ncc(-c2ccc(-c3ccc(-c4cnc([C@@H]5CCCN6C(=O)CC[C@H](NC(=O)OCc7ccccc7)C(=O)N56)[nH]4)cc3)cc2)[nH]1)C(C)C [Compound I-3, {(4S,7S)-4-[5-(4′-{2-[(S)-1-((S)-2-Methoxycarbonylamino-3-methyl-butyryl)-pyrrolidin-2-yl]-3H-imidazol-4-yl}-biphenyl-4-yl)-1H-imidazol-2-yl]-6,10-dioxo-octahydro-pyridazino[1,2-a][1,2]diazepin-7-yl}-carbamic acid benzyl ester]",2.95 nM
4,"COC(=O)N[C@H]1CCC(=O)N2CCC[C@@H](c3ncc(-c4ccc(-c5ccc(-c6cnc([C@@H]7CCCN8C(=O)CC[C@H](NC(=O)OC)C(=O)N78)[nH]6)cc5)cc4)[nH]3)N2C1=O [Compound I-1, [(4S,7S)-4-(5-{4′-[2-((1S,9S)-9-[(Methoxycarbonyl)amino]-6,10-dioxo-octahydro-pyridazino[1,2-a][1,2]diazepin-1-yl)-3H-imidazol-4-yl]-biphenyl-4-yl}-1H-imidazol-2-yl)-6,10-dioxo-octahydro-pyridazino[1,2-a][1,2]diazepin-7-yl]-carbamic acid methyl ester]",10.6 nM
5,"COC(=O)N[C@H]1CCC(=O)N2CCC[C@@H](c3ncc(-c4ccc(-c5cnc6cc(-c7cnc([C@@H]8CCCN8C(=O)[C@@H](NC(=O)OC)C(C)C)[nH]7)ccc6n5)cc4)[nH]3)N2C1=O [Compound I-4, ((4S,7S)-4-{5-[4-(6-{2-[(S)-1-((S)-2-Methoxycarbonylamino-3-methyl-butyryl)-pyrrolidin-2-yl]-3H-imidazol-4-yl}-quinoxalin-2-yl)-phenyl]-1H-imidazol-2-yl}-6,10-dioxo-octahydro-pyridazino[1,2-a][1,2]diazepin-7-yl)-carbamic acid methyl ester]",0.13 nM
6,"COC(=O)N[C@H]1CCC(=O)N2CCC[C@@H](c3ncc(-c4ccc(-c5ccc(-c6cnc([C@@H]7CCCN7C(=O)[C@@H](NC(=O)OC)C(C)C)[nH]6)cc5)cc4)[nH]3)N2C1=O [Compound I-7, {(4S,7S)-4-[5-(4′-{2-[(S)-1-((S)-2-Methoxycarbonylamino-3-methyl-butyryl)-pyrrolidin-2-yl]-3H-imidazol-4-yl}-biphenyl-4-yl)-1H-imidazol-2-yl]-6,10-dioxo-octahydro-pyridazino[1,2-a][1,2]diazepin-7-yl}-carbamic acid methyl ester]",1.1 nM
7,"COC(=O)N[C@H]1CCC(=O)N2CCC[C@@H](c3ncc(-c4ccc(-c5ccc(-c6cnc(C7CC8(CCOCC8)CN7C(=O)[C@@H](NC(=O)OC)C(C)C)[nH]6)cc5)cc4)[nH]3)N2C1=O (stereo partly drawn) [Compound I-6, {(4S,7S)-4-[5-(4′-{2-[2-((S)-2-Methoxycarbonylamino-3-methyl-butyryl)-8-oxa-2-aza-spiro[4.5]dec-3-yl]-3H-imidazol-4-yl}-biphenyl-4-yl)-1H-imidazol-2-yl]-6,10-dioxo-octahydro-pyridazino[1,2-a][1,2]diazepin-7-yl}-carbamic acid methyl ester]",1.5 nM

# Test system: not listed separately
# Assay: in vitro
# Format: cell-based
# Conditions: human
# Protocol: Determination of Compounds Cytotoxicity Using the HCV GT1b Replicon Cell Line Measuring WST1.
# 2209-23 cells were plated at a cell density of 5000 cells per well in clear flat-bottom 96 well plate (Becton Dickinson, Cat #35 3075) for cell viability studies. The WST-1 cell proliferation assay (Roche Diagnostic, Cat#11644807001) was used to determine cell viability. Assay plates were set up in the same format as in the replicon assay. After 3 days of compound incubation 10 μl of WST-1 reagent was added to each well for 2 hours at 37° C. and 5% CO2, following manufacturer's instructions. Absorption reading at 450 nm (reference filter at 650 nm) was determined using MRX Revelation microtiter plate reader (Lab System). CC50 values were defined as the compound concentration required for reducing cell viability by 50% as compared to the untreated control in absence of compound and was determined by non-linear fitting of compound dose-response data. Representative assay data can be found in Table II below: […]
row,Structure (SMILES),CC50 at 3 days
1,"COC(=O)N[C@H]1CCC(=O)N2CCC[C@@H](c3ncc(-c4ccc(-c5cnc6cc(-c7cnc([C@@H]8CCCN8C(=O)[C@@H](NC(=O)OC)C(C)C)[nH]7)ccc6n5)cc4)[nH]3)N2C1=O [Compound I-4, ((4S,7S)-4-{5-[4-(6-{2-[(S)-1-((S)-2-Methoxycarbonylamino-3-methyl-butyryl)-pyrrolidin-2-yl]-3H-imidazol-4-yl}-quinoxalin-2-yl)-phenyl]-1H-imidazol-2-yl}-6,10-dioxo-octahydro-pyridazino[1,2-a][1,2]diazepin-7-yl)-carbamic acid methyl ester]",8160 nM
